Data taken from patent US20130344055A1, “ANTIMICROBIAL AGENTS” (priority 2010, published 2013).
Read-outs that look alike come from different tables or passages of the source.

Legend:
[1] = test system: E. coli XL1 blue; assay type: cell-based; settings: for Average log reduction, E. coli. X1-1: Table 9, with EDTA 0.5 mM
Procedure: . After incubation cell suspensions and as a control untreated bacterial cells without any added modified OBPgpLYS variant were diluted three times (respectively 10^5-10^4-10^3 cells/ml) in 1× concentrated PBS buffer and 100 μl of each dilution was plated out on LB-medium. […] All samples were replicated in threefold. Averages +/− standard deviations are represented.
(§1) The production of OBPgpLys with two peptide stretches is described above in Example 1. Moreover, the purification of the fusion proteins and the antimicrobial activity assay was performed as described already in Example 1.

[2] = test system: S. typhimurium LT2; experiment: In vitro antibacterial activity (log reduction) of modified OBPgpLys fusion variants; assay type: cell-based, Salmonella typhimurium; settings: 10^6 cells/ml, 30 minutes at RT; for Average log reduction, Salmonella typhimurium LT2: Table 9, with EDTA 0.5 mM; for Average log reduction, S. typhimurium LT2: 1500 nM protein
Procedure: After incubation cell suspensions and as a control untreated bacterial cells without any added modified OBPgpLYS variant were diluted three times (respectively 10^5-10^4-10^3 cells/ml) in 1× concentrated PBS buffer and 100 μl of each dilution was plated out on LB-medium. […] All samples were replicated in threefold. Averages +/− standard deviations are represented.
as §1

[3] = test system: P. aeruginosa PAO1p; experiment: as above; assay type: cell-based; settings: 10^6 cells/ml, 30 minutes at RT
Procedure: (§2) Exponential growing Gram-negative bacterial cells (OD600 nm=0.6) were 100-fold diluted to a final density of about 10^6 cells/ml in 5 mM HEPES pH 7.4 and incubated for 30 minutes at room temperature without shaking with the different modified OBPgpLYS variants (in Elution Buffer in an end concentration of 1500 nM). After incubation cell suspensions and as a control untreated bacterial cells without any added modified OBPgpLYS variant were diluted three times (respectively 10^5-10^4-10^3 cells/ml) in 1× concentrated PBS buffer and 100 μl of each dilution was plated out on LB-medium. […] All samples were replicated in threefold. Averages +/− standard deviations are represented.
as §1

[4] = test system: P. putida G1; experiment: as above; assay type: cell-based; settings: 10^6 cells/ml, 30 minutes at RT
Procedure: as §2, §1

[5] = 10^6 cells/ml, 30 minutes at RT
[6] = with EDTA 0.5 mM (B), 1500 nM protein, 10^6 cells/ml, 30 minutes at RT
[7] = without EDTA (A), 1500 nM protein, 10^6 cells/ml, 30 minutes at RT
[8] = with EDTA 0.5 mM (B), 1500 nM protein
[9] = without EDTA (A), 1500 nM protein

Row | Compound | Average log reduction, E. coli. X1-1 [1, 5] | Average log reduction, Salmonella typhimurium LT2 [2] | Average log reduction, P. aeruginosa PAO1p ([3]; Table 9, with EDTA 0.5 mM) | Average log reduction, P. putida G1 ([4]; Table 9, with EDTA 0.5 mM) | Average log reduction, E. coli XL1 blue [1, 6] | Average log reduction, E. coli XL1 blue [1, 7] | Average log reduction, S. typhimurium LT2 ([2]; with EDTA 0.5 mM (B)) | Average log reduction, S. typhimurium LT2 ([2]; without EDTA (A)) | Average log reduction, P. aeruginosa PAO1p [3, 8] | Average log reduction, P. aeruginosa PAO1p [3, 9] | Average log reduction, P. putida G1 [4, 8] | Average log reduction, P. putida G1 [4, 9] | Average log reduction, E. coli XL1 blue [1]
1 | OBPgpLYS: endolysin of Pseudomonas putida phage OBP, without peptide stretch | + (+: 1 log) | + (+: 1 log) | + (+: 1 log) | + (+: 1 log) | – | – | – | – | – | – | – | – | –
2 | Lycotoxin1-PK-OBPgpLYS: antimicrobial peptide Lycotoxin 1, then PK, N-terminally fused to endolysin OBPgpLys | ++ (++: 2-3 log) | + (+: 1 log) | +++ (+++: 4 or more logs) | ++ (++: 2-3 log) | 0.90 log | 0.41 log | 0.29 log | 0.17 log | 3.73 log | 0.08 log | 2.26 log | 0.56 log | –
3 | PK-Pentapeptide-OBPgplys: polycationic peptide PK, then hydrophobic pentapeptide FFVAP, N-terminally fused to endolysin OBPgpLys | ++ (++: 2-3 log) | + (+: 1 log) | +++ (+++: 4 or more logs) | +++ (+++: 4 or more logs) | 2.12 log | 1.69 log | 0.42 log | 0.22 log | 4.00 log | 0.95 log | 3.24 log | 0.80 log | –
4 | O=C(O)CN(CCN(CC(=O)O)CC(=O)O)CC(=O)O [EDTA, reference compound] | – | – | – | – | – | – | – | – | 1.82 log | – | 0.65 log | – | 0.85 log
5 | Walmagh2-PK-OBPgplys: amphiphatic peptide Walmagh 2, then PK, N-terminally fused to endolysin OBPgpLys | ++ (++: 2-3 log) | + (+: 1 log) | +++ (+++: 4 or more logs) | ++ (++: 2-3 log) | 1.86 log | 1.68 log | 0.25 log | 0.17 log | 3.91 log | 0.57 log | 2.60 log | 0.00 log | –
